The values that follow come from patent publication US20230002439A1, “CRYSTALLINE FORMS OF VAMOROLONE” (ReveraGen BioPharma, Inc., priority 2021, published 2023).

Series [1] in a line: DSC thermal treatment and hot-stage pXRD (Form II vs. Form I). The class given is physicochemical. As to the method:
The melting of vamorolone was performed in a DSC apparatus at a heating rate of 10° C./min. The DSC furnace was programmed to cool at 10° C./min down to −40° C. A second heating cycle at a heating rate of 10° C./min was performed.
The solid samples were examined using an X-ray diffractometer (Bruker D8 advance). The system is equipped with highly-parallel x-ray beams (Göbel Mirror) and a LynxEye detector. The samples were scanned from 3 to 40° 20 at a step size of 0.02° 20 and a time per step of 19.70 seconds. The tube voltage and current were 45 kV and 40 mA, respectively. The sample was transferred from the sample container onto a zero background XRD-holder and gently ground.
DSC analyses were conducted on a TA Instruments Q200. The calibration standard was indium. A sample of 2.0 mg in weight was placed into a TA DSC pan, and weight was accurately recorded. Crimped pans were used for analysis, and the samples were heated under nitrogen (50 mL/min) at a rate of 10° C./min, up to a final temperature of 260° C.
However, the pXRD pattern obtained after the sample was cooled down to room temperature is similar to the initial material. […] It is estimated from DSC and hot-stage pXRD data that the transition temperature could well be above 100° C. […]
A general note: In DSC, transitions show as peaks or steps in heat flow.

The nature of series [2]: Thermogravimetric analysis (TGA). In kind it is physicochemical. The protocol:
TGA analyses were carried out on a TA Instruments TGA Q500. Approximately 2.0 mg of samples were placed in a tared platinum or aluminum pan, automatically weighed, and inserted into the TGA furnace. The samples were heated at 10° C./min to a final temperature of 300° C. The purge gas is nitrogen for balance at 40 mL/min and the sample at 60 mL/min, respectively.

Series [3] concerns mouse models of inflammatory states. Particulars: multiple mouse models; including loss of growth stunting and loss of bone fragility; cited from earlier work.
Series [4] concerns the target T1, glucocorticoid receptor (Homo sapiens, UniProt P04150).
T1 sequence (P04150 1-777): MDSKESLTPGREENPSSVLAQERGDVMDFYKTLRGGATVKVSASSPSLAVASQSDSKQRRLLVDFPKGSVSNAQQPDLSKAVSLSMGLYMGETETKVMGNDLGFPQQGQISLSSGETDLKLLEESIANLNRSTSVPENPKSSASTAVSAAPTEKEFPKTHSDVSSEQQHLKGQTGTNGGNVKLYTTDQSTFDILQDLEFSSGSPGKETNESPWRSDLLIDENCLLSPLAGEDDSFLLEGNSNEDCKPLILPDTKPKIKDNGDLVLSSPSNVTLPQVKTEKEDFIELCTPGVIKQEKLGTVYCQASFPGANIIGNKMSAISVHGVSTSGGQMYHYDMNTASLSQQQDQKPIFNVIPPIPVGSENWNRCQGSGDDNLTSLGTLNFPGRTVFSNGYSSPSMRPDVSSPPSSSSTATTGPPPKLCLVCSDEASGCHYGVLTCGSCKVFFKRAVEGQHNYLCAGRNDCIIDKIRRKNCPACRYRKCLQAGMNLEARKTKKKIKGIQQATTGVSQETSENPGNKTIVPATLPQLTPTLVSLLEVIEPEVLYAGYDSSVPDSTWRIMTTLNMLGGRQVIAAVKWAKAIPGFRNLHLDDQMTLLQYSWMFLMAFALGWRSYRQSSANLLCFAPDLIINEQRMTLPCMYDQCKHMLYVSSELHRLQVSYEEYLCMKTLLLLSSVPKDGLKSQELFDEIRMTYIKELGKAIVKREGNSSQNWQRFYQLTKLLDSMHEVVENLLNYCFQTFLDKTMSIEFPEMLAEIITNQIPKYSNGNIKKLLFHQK
Particulars: pre-clinical data, background statement; cited from earlier work.

With `C[C@@H]1C[C@H]2[C@@H]3CCC4=CC(=O)C=C[C@]4(C)C3=CC[C@]2(C)[C@@]1(O)C(=O)CO` [Form I, 17α,21-dihydroxy-16α-methylpregna-1,4,9(11)-triene-3,20-dione], the “relative stability of polymorphs” value in series [1] (below the transition temperature) is on record as “most stable form”.

For `C[C@@H]1C[C@H]2[C@@H]3CCC4=CC(=O)C=C[C@]4(C)C3=CC[C@]2(C)[C@@]1(O)C(=O)CO` [Form IV, 17α,21-dihydroxy-16α-methylpregna-1,4,9(11)-triene-3,20-dione], the TGA weight loss in series [2] (FIG. 7, temperature not stated) was below 0.5%; in series [2] (below about 200° C.), “less than 0.5%”. For `C[C@@H]1C[C@H]2[C@@H]3CCC4=CC(=O)C=C[C@]4(C)C3=CC[C@]2(C)[C@@]1(O)C(=O)CO` [Form VII, 17α,21-dihydroxy-16α-methylpregna-1,4,9(11)-triene-3,20-dione], the TGA weight loss entry in series [2] (below about 225° C.) is reported as “less than 1%”.

As for `C[C@@H]1C[C@H]2[C@@H]3CCC4=CC(=O)C=C[C@]4(C)C3=CC[C@]2(C)[C@@]1(O)C(=O)CO` [vamorolone, 17α,21-dihydroxy-16α-methylpregna-1,4,9(11)-triene-3,20-dione], the side effect profiles result in series [3] is “dramatically improves side effect profiles”. For the same compound, the “binding to the glucocorticoid receptor” value in series [4] is given as “binds potently”.

Turning to `C[C@@H]1C[C@H]2[C@@H]3CCC4=CC(=O)C=C[C@]4(C)C3=CC[C@]2(C)[C@@]1(O)C(=O)CO` [Form II, 17α,21-dihydroxy-16α-methylpregna-1,4,9(11)-triene-3,20-dione], in series [1] (above the transition temperature), the “relative stability of polymorphs” value is listed as “most stable”.
